Source: PubChem BioAssay AID248 (DTP/NCI, 2004)
Values joined by “and” are separate entries in the source; they are usually repeats but may differ in a detail not shown here. Identical values can stand only once. Inconclusive results and toxic doses are left out. No stated cut-off is given here; in the data, active means T/C of 150% or more; inactive means T/C below 125%.

Tested on: L1210 leukemia ip in BDF1 mice, survival T/C
Assay: NCI In Vivo Anticancer Drug Screen. Data for tumor model L1210 Leukemia (intraperitoneal) in B6D2F1 (BDF1) mice
Settings: endpoint: mean survival time, higher = longer survival
Summary of the method: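 Antitumor effect is assessed in tumor-bearing animals. Survival in the compound arm is compared with a vehicle-dosed control arm and expressed as their quotient.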

[1] = dose: 100.0 mg/kg/injection, schedule: Q01DX001 (ip), vehicle: Klucel (hydroxypropylcellulose) (HPC)
[2] = dose: 200.0 mg/kg/injection, schedule: Q01DX001 (ip), vehicle: Klucel (hydroxypropylcellulose) (HPC)
[3] = dose: 100.0 mg/kg/injection, schedule: Q01DX001 (ip), vehicle: saline
[4] = dose: 200.0 mg/kg/injection, schedule: Q01DX001 (ip), vehicle: saline
[5] = dose: 400.0 mg/kg/injection, schedule: Q01DX001 (ip), vehicle: saline
[6] = dose: 100.0 mg/kg/injection, schedule: Q04DX003 (ip), vehicle: saline with Tween-80
[7] = dose: 200.0 mg/kg/injection, schedule: Q04DX003 (ip), vehicle: saline with Tween-80
[8] = dose: 400.0 mg/kg/injection, schedule: Q04DX003 (ip), vehicle: saline with Tween-80
[9] = dose: 100.0 mg/kg/injection, schedule: Q01DX001 (ip), vehicle: carboxymethylcellulose (CMC)
[10] = dose: 200.0 mg/kg/injection, schedule: Q01DX001 (ip), vehicle: carboxymethylcellulose (CMC)
[11] = dose: 400.0 mg/kg/injection, schedule: Q01DX001 (ip), vehicle: carboxymethylcellulose (CMC)

Measured: T/C

CCOC(=O)CCC(NC(=O)c1ccc(N(C)Cc2cnc3nc(NC(C)=O)cc(NC(C)=O)c3n2)cc1)C(=O)OCC (centres undefined)
inactive: dose: 100.0 mg/kg/injection, schedule: Q01DX001 (ip), vehicle: other 102 % of control | dose: 200.0 mg/kg/injection, schedule: Q01DX001 (ip), vehicle: other 93 % of control | dose: 400.0 mg/kg/injection, schedule: Q01DX001 (ip), vehicle: other 95 % of control

COc1cc(C(=O)O)c2c(c1C)OC(=O)c1c(C)cc(O)c(C=O)c1O2
inactive: dose: 8.0 mg/kg/injection, schedule: Q01DX Z (ip), vehicle: saline 91 % of control | dose: 16.0 mg/kg/injection, schedule: Q01DX Z (ip), vehicle: saline 102 % of control | dose: 32.0 mg/kg/injection, schedule: Q01DX Z (ip), vehicle: saline 100 % of control | dose: 40.0 mg/kg/injection, schedule: Q04DX003 (ip), vehicle: Klucel (hydroxypropylcellulose) (HPC) 97 % of control | dose: 64.0 mg/kg/injection, schedule: Q01DX Z (ip), vehicle: saline 111 % of control | dose: 80.0 mg/kg/injection, schedule: Q04DX003 (ip), vehicle: Klucel (hydroxypropylcellulose) (HPC) 107 % of control | dose: 160.0 mg/kg/injection, schedule: Q04DX003 (ip), vehicle: Klucel (hydroxypropylcellulose) (HPC) 107 % of control

CCCCCCOP(=O)(CCCCCC)OCCCCCC
inactive: dose: 13.3 mg/kg/injection, schedule: Q01DX Z (ip), vehicle: methylcellulose (MC) 96 % of control | dose: 20.0 mg/kg/injection, schedule: Q01DX Z (ip), vehicle: methylcellulose (MC) 102 % of control | dose: 25.0 mg/kg/injection, schedule: Q01DX009 (ip), vehicle: Klucel (hydroxypropylcellulose) (HPC) 93 % of control | dose: 25.0 mg/kg/injection, schedule: Q04DX003 (ip), vehicle: Klucel (hydroxypropylcellulose) (HPC) 94 % of control | dose: 30.0 mg/kg/injection, schedule: Q01DX Z (ip), vehicle: methylcellulose (MC) 95 % of control | dose: 50.0 mg/kg/injection, schedule: Q01DX009 (ip), vehicle: Klucel (hydroxypropylcellulose) (HPC) 101 % of control | dose: 50.0 mg/kg/injection, schedule: Q04DX003 (ip), vehicle: Klucel (hydroxypropylcellulose) (HPC) 89 % of control | dose: 100.0 mg/kg/injection, schedule: Q01DX009 (ip), vehicle: Klucel (hydroxypropylcellulose) (HPC) 98 % of control | dose: 100.0 mg/kg/injection, schedule: Q04DX003 (ip), vehicle: Klucel (hydroxypropylcellulose) (HPC) 103 % of control

CCOC(=O)C1(c2ccccc2)CCN(CCC(=O)c2ccc(F)cc2)CC1
inactive: [1] 98 % of control | [2] 95 % of control

CC(C)C(=O)C(C)(C)C
inactive: [3] 102 % of control | [4] 98 % of control | [5] 107 % of control

O=C1CCC(N2C(=O)C3C4CCC(CC4)C3C2=O)C(=O)N1 (centres undefined)
inactive: [6] 104 % of control | [7] 96 % of control | [8] 100 % of control

CCOC(=O)NC1CC1
inactive: [3] 93 % of control | [4] 95 % of control | [5] 101 % of control

CC1(C)C2CC3C=CCCC3(C2)C1Br (centres undefined)
inactive: [1] 103 % of control | [2] 92 % of control | dose: 400.0 mg/kg/injection, schedule: Q01DX001 (ip), vehicle: Klucel (hydroxypropylcellulose) (HPC) 100 % of control

Cc1cccc(Cl)c1OC(=O)Nc1ccccc1
inactive: dose: 50.0 mg/kg/injection, schedule: Q04DX002 (ip), vehicle: Klucel (hydroxypropylcellulose) (HPC) 98 % of control | dose: 100.0 mg/kg/injection, schedule: Q04DX002 (ip), vehicle: Klucel (hydroxypropylcellulose) (HPC) 98 % of control | dose: 200.0 mg/kg/injection, schedule: Q04DX002 (ip), vehicle: Klucel (hydroxypropylcellulose) (HPC) 102 % of control

Cc1cc([N+](=O)[O-])c(Cl)c([N+](=O)[O-])c1
inactive: [9] 91 % of control | [10] 89 % of control | [11] 100 % of control

CCCCNc1cc2c3c(c1)CCCN3CCC2
inactive: dose: 12.5 mg/kg/injection, schedule: Q01DX009 (ip), vehicle: saline 107 % of control | dose: 12.5 mg/kg/injection, schedule: Q04DX003 (ip), vehicle: saline 95 % of control | dose: 25.0 mg/kg/injection, schedule: Q01DX009 (ip), vehicle: saline 103 % of control | dose: 25.0 mg/kg/injection, schedule: Q04DX003 (ip), vehicle: saline 98 % of control | dose: 50.0 mg/kg/injection, schedule: Q04DX003 (ip), vehicle: saline 95 % of control

O=[N+]([O-])c1cc(S(=O)(=O)c2ccc(O)c([N+](=O)[O-])c2)ccc1O
inactive: dose: 25.0 mg/kg/injection, schedule: Q04DX002 (ip), vehicle: saline 98 % of control | dose: 50.0 mg/kg/injection, schedule: Q04DX002 (ip), vehicle: saline 98 % of control | dose: 100.0 mg/kg/injection, schedule: Q04DX002 (ip), vehicle: saline 98 % of control and 104 % of control

O=c1cc(Nc2ccc(Cl)cc2)[nH]c(=O)[nH]1
inactive: dose: 100.0 mg/kg/injection, schedule: Q01DX001 (ip), vehicle: gum acacia 101 % of control | dose: 400.0 mg/kg/injection, schedule: Q01DX001 (ip), vehicle: gum acacia 101 % of control

O=S(=O)(c1ccccc1)C1CCCCC1Cl (centres undefined)
inactive: [9] 95 % of control | [10] 98 % of control | [11] 101 % of control

O=C1N=C2C=CC=CN2CC1O (centres undefined)
inactive: [6] 88 % of control | [7] 89 % of control | [8] 89 % of control

CCOC(=O)C(C#N)C(CC)(CC)C1CCCCC1 (centres undefined)
inactive: dose: 50.0 mg/kg/injection, schedule: Q01DX001 (ip), vehicle: carboxymethylcellulose (CMC) 102 % of control | [9] 102 % of control | [10] 96 % of control | [11] 113 % of control
